{
  "source": "ChEMBL document CHEMBL5608241",
  "about": "“Discovery of Novel Non-nucleoside DOT1LR231Q Inhibitors with Improved Pharmacokinetic Properties and Anti-lung Cancer Efficacy” (J Med Chem, 2024)",
  "assay": "Toxicity in male BALB/c-nu mouse model xenografted with human NCI-H460 cells harboring DOT1L R231Q mutant assessed as effect on heart viscera index at 20 mg/kg, ip administered five times a week for 3 weeks",
  "assay_type": "organism-based",
  "details": "in vivo, 504 h",
  "data": [
    {"smiles": "CC(C)(C)c1ccc(NC(=O)NCCCN(CCCN2CCOCC2)CC2(O)CCN(c3nc(Cl)nc4sccc34)C2)cc1", "note": "(stereo unspecified)", "values": [
      {"measurement": "Activity", "value": "Non-Toxic"}
    ]}
  ]
}
